Where “and” joins values, the source holds several entries; their conditions need not be identical. Equal values may be shown once. Read-outs that look alike come from different tables or passages of the source.
What was measured:
[1] = test system: O=c1[nH]cnc2nc[nH]c12; test: cells, lysate or membranes; settings: other: 0.10 µM [3H]-hypoxanthine, 30 s, Michaelis-Menten; pH 7.3
[2] = target: T1, Tg244440 (Toxoplasma gondii, UniProt A0A125YNC9); format: cell-based; settings: 0.1 μM [3H]-permeant, 60 s, clones B11, F5 and G10
T1 sequence (A0A125YNC9 1-462): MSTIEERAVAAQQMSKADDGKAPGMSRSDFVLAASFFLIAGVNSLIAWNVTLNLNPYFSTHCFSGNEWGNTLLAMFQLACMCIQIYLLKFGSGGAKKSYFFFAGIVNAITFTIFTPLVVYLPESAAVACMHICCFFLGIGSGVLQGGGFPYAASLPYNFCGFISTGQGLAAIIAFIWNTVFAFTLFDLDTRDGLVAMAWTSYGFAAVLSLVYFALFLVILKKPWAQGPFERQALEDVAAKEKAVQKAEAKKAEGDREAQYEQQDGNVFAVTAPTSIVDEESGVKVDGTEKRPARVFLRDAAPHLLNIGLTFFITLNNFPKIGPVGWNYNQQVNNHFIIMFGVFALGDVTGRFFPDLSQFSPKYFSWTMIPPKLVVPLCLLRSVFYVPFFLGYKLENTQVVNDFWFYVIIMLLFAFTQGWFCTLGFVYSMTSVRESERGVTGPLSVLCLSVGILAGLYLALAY
Experimental: (§1) Figure 2 Uptake of radiolabelled nucleosides and nucleobases by in three clonal lines of T. brucei NB-KO procyclics, expressing Tg244440 in pHD1336. EV, empty vector control. Radiolabel concentration was 0.1 µM and uptake was measured over 60 s, in triplicate (average and SEM shown). Statistically significant differences between the control and the Tg244440-expressing cells were established using Student’s unpaired t-test. *, p < 0.05, **, p < 0.01, ***, p < 0.001.
(§2) Briefly, PCF cells of T. brucei in logarithmic growth were harvested by centrifugation at 1000× g for 10 min, washed twice in AB and then resuspended in fresh buffer at a final density of 10^8 cells/mL. […] Immediately after finishing the assay, all tubes were flash-frozen in liquid nitrogen and the cell pellets were cut into scintillation vials and lysed with a solution of 2% SDS for one hour under agitation. Then, 3 mL of scintillation fluid (Scintilogic U, Lablogic) was added to each vial and left agitating overnight on a rocking platform. The next morning, the vials were vigorously shaken to ensure optimal mixing and the scintillation was measured in a 300SL (Hidex) scintillation counter. All assays were carried out in triplicate. All experimental data such as Km, Ki and Vmax values are the average and SEM of at least three separate experiments, each in triplicate, unless otherwise indicated.

[3] = target: T1, Tg244440; test: [3H]-guanine uptake and its inhibition in T. brucei TbNB-KO procyclics expressing Tg244440 (clone F5); format: cell-based; settings: for Ki: competition with 50 nM [3H]-guanine, 30 s, Cheng-Prusoff; for Sum of δ(ΔG^0) for the 7-deaza and 9-deaza analogues: analogues of the named nucleobase; for ΔG^0 (Gibbs free energy of interaction): calculated from Km or Ki, ΔG0 = −RTln(Ki); for Summation of the Gibbs free energy of the proposed interactions (binding model), Σ: substrate binding model, Figure 5, for adenosine base group only; for Rate of [3H]-guanine uptake, +Tg244440: clone F5
Experimental: as §2
(§3) Background scintillation was measured in vials containing no cells or radiolabeled substrate, and counts associated with extracellular radiolabel were calculated from samples where cells were briefly incubated with the same concentration of radiolabel, but in the presence of saturating concentrations of non-radiolabeled substrate before centrifugation through oil. The average of the three control replicates was subtracted from each data point.

[4] = target: T1, Tg244440; settings: clone F5
Experimental: as §2, §3

[5] = test system: TbNBT-KO cells transfected with the empty vector (EV); test: [3H]-guanine and [3H]-hypoxanthine uptake in TbNBT-KO cells transfected with the empty vector (EV); format: cell-based, Trypanosoma brucei; settings: for Rate of [3H]-hypoxanthine uptake, EV / Rate of [3H]-guanine uptake, EV: empty vector cells
Experimental: as §2, §3

[6] = test system: TgNBT1; settings: tachyzoites; cited from earlier work
[7] = target: TgAT2; design: method as in PMID 12865082; settings: cited from earlier work; for Km: tachyzoites
[8] = test system: T. gondii; settings: cited from earlier work
[9] = test system: TgAT1; settings: cited from earlier work
[10] = test system: inosine transporter; settings: tachyzoites; read-out: apparent Km; cited from earlier work
[11] = test system: Tg244440; format: cell-based, Toxoplasma gondii; settings: 0.1 μM [3H]-permeant, 60 s, clones B11, F5 and G10
Experimental: as §1, §2

[12] = target: T1, Tg244440; settings: Xenopus laevis oocytes, 10 µM [3H]-adenosine; cited from earlier work
[13] = test system: human adenosine kinase; design: method as in PMID 23592612, PMID 6363411, PMID 10722669, PMID 8982282; settings: cited from earlier work
[14] = test system: human adenosine deaminase; design: method as in PMID 23592612, PMID 6363411, PMID 10722669, PMID 8982282; settings: cited from earlier work
[15] = test system: hENT1; design: method as in PMID 23592612, PMID 6363411, PMID 10722669, PMID 8982282; settings: cited from earlier work
[16] = substrate: Nc1nc2nc[nH]c2c(=O)[nH]1; test: [3H]-guanine uptake and its inhibition in T. brucei TbNB-KO procyclics expressing Tg244440 (clone F5); format: cell-based, Toxoplasma gondii; settings: other: 0.05 µM [3H]-guanine, 30 s, Michaelis-Menten; pH 7.3
[17] = [Permeant] 0.1 μM, over 60 s, listed as hypoxanthine
[18] = [Permeant] 1000 μM (unlabelled hypoxanthine to saturate the transporter)
[19] = [Permeant] 25 μM (unlabelled guanine to saturate the transporter)

## Tg244440 (Toxoplasma gondii ME49)
[1]
  Km: 1 µM and 0.79 ± 0.06 µM

## Cc1cn([C@H]2C[C@H](O)[C@@H](CO)O2)c(=O)[nH]c1=O [thymidine]
[2]
  Uptake of radiolabelled permeant in Tg244440 clones compared to empty vector: only slightly increased

## O=c1[nH]cnc2nc[nH]c12 [Hypoxanthine]
[3]; Ki
  Ki: 2.26 ± 0.36 µM
[3]
  Sum of δ(ΔG^0) for the 7-deaza and 9-deaza analogues: 15.8 kJ/mol
  ΔG^0 (Gibbs free energy of interaction): -7.7 kcal/mol
  δ(ΔG^0) relative to Guanine: 0.359 kcal/mol
  Summation of the Gibbs free energy of the proposed interactions (binding model), Σ: -8.01 kcal/mol
[4]; [Permeant] 0.1 μM, over 60 s
  Rate of [3H]-hypoxanthine uptake, +Tg244440: 0.048 ± 0.0004 pmol(10^7 Cells)^−1s^−1
[4]; [17]
  Rate of [3H]-hypoxanthine uptake, +Tg244440: 0.048 pmol(10^7 Cells)^−1s^−1
[4]; [18]
  Rate of [3H]-hypoxanthine uptake, +Tg244440: −0.01 ± 0.01 pmol(10^7 Cells)^−1s^−1
[5]; 0.10 µM [3H]-hypoxanthine over 60 s
  Slope of uptake in EV control lower than in +Tg244440 clone F5: 86.2%
[5]; [Permeant] 0.1 μM, over 60 s
  Rate of [3H]-hypoxanthine uptake, EV: 0.0066 ± 0.0007 pmol(10^7 Cells)^−1s^−1
[5]; [17]
  Rate of [3H]-hypoxanthine uptake, EV: 0.0066 pmol(10^7 Cells)^−1s^−1
[5]; [18]
  Rate of [3H]-hypoxanthine uptake, EV: 0.00055 pmol(10^7 Cells)^−1s^−1
[2]
  Uptake of radiolabelled permeant in Tg244440 clones compared to empty vector: highly significant increases
[6]
  Km: 0.91 µM

## Nc1ncnc2c1ncn2[C@@H]1O[C@H](CO)[C@@H](O)[C@@H]1O [Adenine arabinoside (Ara-A), Adenine arabinoside]
[3]
  Affinity for Tg244440 (in words): low affinity
  ΔG^0 (Gibbs free energy of interaction): -4.78 kcal/mol
  δ(ΔG^0) relative to Adenosine: 0.896 kcal/mol
[3]; read-out: Ki
  Ki: 310 ± 14 µM
[7]
  Ki: 2.9 µM
[8]
  Activity against T. gondii (in words): moderately active

## O=c1[nH]cnc2c1ncn2[C@@H]1O[C@H](CO)[C@@H](O)[C@H]1O [Inosine]
[3]; Ki
  Ki: 4.05 ± 1.37 µM
[3]
  ΔG^0 (Gibbs free energy of interaction): -7.36 kcal/mol
  δ(ΔG^0) relative to Hypoxanthine: 0.335 kcal/mol
[9]; for its substrates
  Km: > 100 µM
[7]
  Km: 0.77 µM
[10]
  Km: 81 µM

## OC[C@@H]1CC[C@H](n2cnc3c(O)ncnc32)O1 [2′,3′-dideoxyinosine]
[3]; Ki
  Ki: 698 ± 52 µM
[3]
  ΔG^0 (Gibbs free energy of interaction): -4.3 kcal/mol
  δ(ΔG^0) relative to Inosine: 3.06 kcal/mol
[8]
  Activity against T. gondii (in words): active in vitro and in vivo

## Nc1ncnc2c1ncn2[C@@H]1O[C@H](CO)[C@@H](O)[C@H]1O [Adenosine]
[3]
  Affinity for Tg244440 (in words): Low affinity
  ΔG^0 (Gibbs free energy of interaction): -5.69 kcal/mol
  δ(ΔG^0) relative to Adenine: -1.08 kcal/mol
  Summation of the Gibbs free energy of the proposed interactions (binding model), Σ: -4.97 kcal/mol
[3]; Ki
  Ki: 68.2 ± 2.86 µM
[3]; ratio of Ki values
  Fold higher affinity than adenine: 6 fold
  Fold lower affinity than inosine and guanosine: about 20 fold
[3]; listed as adenosine
  δ(ΔG^0) relative to Adenine: 1.08 kcal/mol
[11]
  Uptake of radiolabelled permeant in Tg244440 clones compared to empty vector: No difference
[9]; adenosine transport
  Km: 120 µM
[9]; for its substrates
  Km: > 100 µM
[7]
  Km: 0.49 µM
[12]
  Km: 114 ± 37 µM
[13]
  Km: 0.2 to 0.4 µM
[14]
  Km: 49 µM
[15]
  Km: 40 to 60 µM

## Nc1ncnc2c1ccn2[C@@H]1O[C@H](CO)C[C@H]1O [3′-deoxy,7-deazaadenosine]
[3]; Ki
  Ki: 797 ± 116 µM
[3]
  ΔG^0 (Gibbs free energy of interaction): -4.23 kcal/mol
  δ(ΔG^0) relative to Adenosine: 1.46 kcal/mol

## Nc1nc2cc[nH]c2c(=O)[nH]1 [9-deazaguanine]
[3]; Ki
  Ki: 9.64 ± 1.59 µM
[3]
  ΔG^0 (Gibbs free energy of interaction): -6.84 kcal/mol
  δ(ΔG^0) relative to Guanine: 1.22 kcal/mol

## OC[C@H]1O[C@@H](n2cnc3c(S)ncnc32)[C@H](O)[C@@H]1O [6-thioinosine]
[3]; Ki
  Ki: 7.3 ± 1.2 µM
[3]
  ΔG^0 (Gibbs free energy of interaction): -7 kcal/mol
  δ(ΔG^0) relative to Inosine: 0.335 kcal/mol

## O=C1CC=Nc2nc[nH]c21 [1-deazahypoxanthine]
[3]; Ki
  Ki: 194 ± 43 µM
[3]
  ΔG^0 (Gibbs free energy of interaction): -5.07 kcal/mol
  δ(ΔG^0) relative to Hypoxanthine: 2.63 kcal/mol

## Nc1ncnc2c1ncn2[C@@H]1O[C@H](CO)C[C@H]1O [3′-deoxyadenosine]
[3]; Ki
  Ki: 71.9 ± 2.3 µM
[3]
  ΔG^0 (Gibbs free energy of interaction): -5.64 kcal/mol
  δ(ΔG^0) relative to Adenosine: 0.024 kcal/mol

## O=c1[nH]cnc2[nH]nc(Br)c12 [7-Br-allopurinol]
[3]
  ΔG^0 (Gibbs free energy of interaction): -5.71 kcal/mol
[3]; read-out: Ki
  Ki: 65.7 ± 3.7 µM

## Cn1c(=O)[nH]c(=O)c2[nH]cnc21 [3-methylxanthine]
[3]; Ki
  Ki: 14.6 ± 3.1 µM
[3]
  ΔG^0 (Gibbs free energy of interaction): -6.6 kcal/mol

## OC[C@H]1O[C@@H](n2ccc3c(O)ncnc32)[C@H](O)[C@@H]1O [7-deazainosine]
[3]; Ki
  Ki: 6.32 ± 0.32 µM
[3]
  ΔG^0 (Gibbs free energy of interaction): -7.1 kcal/mol
  δ(ΔG^0) relative to Inosine: 0.263 kcal/mol

## Nc1nc2nc[nH]c2c(=O)[nH]1 [Guanine]
[3]; [Permeant] 0.05 μM, over 60 s
  Rate of [3H]-guanine uptake, +Tg244440: 0.037 ± 0.003 pmol(10^7 Cells)^−1s^−1
[3]; [Permeant] 0.05 μM, over 60 s, listed as guanine
  Rate of [3H]-guanine uptake, +Tg244440: 0.037 pmol(10^7 Cells)^−1s^−1
[3]; [19]
  Rate of [3H]-guanine uptake, +Tg244440: 0.00092 ± 0.00067 pmol(10^7 Cells)^−1s^−1
[3]
  Sum of δ(ΔG^0) for the 7-deaza and 9-deaza analogues: 14.2 kJ/mol
  ΔG^0 (Gibbs free energy of interaction): -8.05 kcal/mol
[5]; [Permeant] 0.05 μM, over 60 s
  Rate of [3H]-guanine uptake, EV: 0.00059 pmol(10^7 Cells)^−1s^−1
[5]; [19]
  Rate of [3H]-guanine uptake, EV: 0.0015 ± 0.0002 pmol(10^7 Cells)^−1s^−1
[2]
  Uptake of radiolabelled permeant in Tg244440 clones compared to empty vector: highly significant increases

## OC[C@H]1O[C@@H](n2ccc3c(O)ncnc32)C[C@@H]1O [7-deaza-2′-deoxyinosine]
[3]; Ki
  Ki: 52.3 ± 8.4 µM
[3]
  ΔG^0 (Gibbs free energy of interaction): -5.83 kcal/mol
[3]; relative to 2′-Deoxyinosine
  δ(ΔG^0) relative to 2′-Deoxyinosine: -0.478 kcal/mol

B1: Tg244440 (Toxoplasma gondii ME49) (protein)
chain: MSTIEERAVAAQQMSKADDGKAPGMSRSDFVLAASFFLIAGVNSLIAWNVTLNLNPYFSTHCFSGNEWGNTLLAMFQLACMCIQIYLLKFGSGGAKKSYFFFAGIVNAITFTIFTPLVVYLPESAAVACMHICCFFLGIGSGVLQGGGFPYAASLPYNFCGFISTGQGLAAIIAFIWNTVFAFTLFDLDTRDGLVAMAWTSYGFAAVLSLVYFALFLVILKKPWAQGPFERQALEDVAAKEKAVQKAEAKKAEGDREAQYEQQDGNVFAVTAPTSIVDEESGVKVDGTEKRPARVFLRDAAPHLLNIGLTFFITLNNFPKIGPVGWNYNQQVNNHFIIMFGVFALGDVTGRFFPDLSQFSPKYFSWTMIPPKLVVPLCLLRSVFYVPFFLGYKLENTQVVNDFWFYVIIMLLFAFTQGWFCTLGFVYSMTSVRESERGVTGPLSVLCLSVGILAGLYLALAY
[16]
  Km: 1 µM

— paper PMC8776092, “A Toxoplasma gondii Oxopurine Transporter Binds Nucleobases and Nucleosides Using Different Binding Modes” (International Journal of Molecular Sciences, 2022)
